Measurements as given in patent publication US4472428A, “Halogenated prostacyclins pharmaceutical use thereof and hydroxy intermediates therefore” (Teijin Limited, priority 1980, dated 1984).
In brackets after ≈: the same amount, converted by molar mass. Where a name gives a salt, the structure may show the parent alone. Read-outs that look alike come from different tables or passages of the source.

Tests used:
blood pressure [1] = assay: hypotensive activity, intravenous injection in anesthetized rats; type: in vivo, rats (male wister); details: for ED20: Rattus norvegicus, iv, anesthetized rats, read-out: P-ED20 (dosage causing a 20% lowering of the mean blood pressure); for blood pressure lowering activity (in words): general statement
Experimental: (§1) Measurement of the hypotensive activity:
(§2) The actions of the prostacyclin derivatives of the invention on the blood pressure and heart rate of rats were examined by intravenous injection under anesthesia.
(§3) Male wister rats weighing about 250 g were used. Urethane (500 mg/kg) and α-chloralose (100 mg/kg) were intraperitoneally administered to the rats. The rats were anesthetized and fixed in place.
(§4) Each of the test compounds was dissolved in a small amount of ethanol and diluted with 0.05M Tris buffer saline (pH 9) to adjust the final ethanol concentration to not more than 5%. The solution was intravenously injected into the rats through a catheter inserted into the femoral vein.
(§5) The blood pressure of the rats was measured by a pressure transducer through a catheter inserted into the carotid artery of the rats. The heart rate was determined from the blood pressure pulse.
(§6) The action of the test compound on the blood pressure was expressed as the dosage (P-ED20, μg/kg) of the test compound which caused a 20% lowering of the mean blood pressure before administration of the compound. The action of the test compound on the heart rate was expressed as the dosage (H-ED10, μg/kg) of the test compound which caused a 10% increase of the heart rate from the heart rate before administration of the test compound.

heart rate = assay: action on heart rate, intravenous injection in anesthetized rats; type: in vivo, rats (male wister); details: Rattus norvegicus, i.v., read-out: H-ED10 (dosage causing a 10% increase of the heart rate)
Experimental: as §1, §2, §3, §4, §5, §6

platelet aggregation [2] = assay: in vitro inhibitory activity of platelet aggregation (ADP-induced, rabbit PRP); type: cell-based, rabbit (Japanese domestic white male); details: for IC50: Oryctolagus cuniculus, Platelet, rabbit PRP, 10 μM ADP, 37° C., read-out: IC50 (minimum concentration which inhibited more than 50% of platelet aggregation); for platelet aggregation inhibiting activity (in words): general statement
Experimental: (1) in vitro inhibitory activity of platelet aggregation:
The in vitro platelet aggregation inhibiting activities of the compounds of the invention were examined by using rabbits. Blood was withdrawn from the ear vein of Japanese domestic white male rabbits weighing 2.5 to 3.5 kg. A mixture of a 3.8% trisodium citrate solution and the blood in a ratio of 1:9 was centrifuged at a speed of 1000 rpm for 10 minutes. The upper layer was separated as platelet-rich plasma (PRP). The lower layer was further centrifuged at a speed of 2800 rpm for 10 minutes. The upper layer was separated as platelet-poor plasma (PPP). The number of platelets was adjusted to 6×10^5 /μl to 7×10^5 /μl by diluting the PRP with PPP. 25 microliters of the test compounds prepared as shown below was added in an amount of 25 to 250 microliters of PRP after the adjustment, and the mixture was pre-incubated at 37° C. for 2 minutes, and then 10 μM (final) of ADP was added. By using an aggregometer, changes in transmission were recorded.
The drug was dissolved in ethanol to a concentration of 10 mg/ml. When its activity was measured, it was used after being diluted with phosphate buffer (pH 7.4). Furthermore, after dilution with the buffer, the drug was left to stand at 0° C. for 4 hours, and the activity of the drug was similarly measured.
The rate of inhibition of platelet aggregation was determined from the following equation.
Inhibition rate (%)=(1-T/To)×100
To : the transmittance of the system containing the phosphate buffer,
T: the transmittance of the system to which the test drug was added.
The minimum concentration of the drug which inhibited more than 50% of platelet aggregation was shown as an IC50 value.

[3] = tested on: blood pressure / platelet aggregation; assay: ratio of the blood pressure lowering activity and the platelet aggregation inhibiting activity; design: species or system rats (blood pressure); rabbits (platelets); details: for P-ED20 / platelet IC50: P-ED20 rats i.v., IC50 rabbit platelets in vitro; for selectivity of pharmacological activity (in words): compared with PGI2
Experimental: (2) From the results obtained in Examples 100 and 101, the ratio of the blood pressure lowering activity and the platelet aggregation inhibiting activity was calculated. The result is shown in Table 3 together with the ratio obtained with PGI2.

blood pressure [4] = assay: action on blood pressure, intraduodenal administration to conscious rats; type: in vivo, rats (male SD); details: for mean blood pressure: N 4
Experimental: The prostocyclin derivatives of the invention were intraduodenally administered to conscious rats, and their action on the blood pressure was examined.
Male SD rats weighing about 200 g were used as experimental animals. These rats had been fasted for 16 hours before the start of the experiment. A catheter was inserted into the femoral artery of the rats under ether anesthesia, and then the rats were restrained within a Bollman cage. After more than 1 hour from awakening, each of the test compounds was intraduodenally administered.
The test compound was dissolved in a small amount of ethanol, and then diluted with 0.05M Tris buffer (pH 9) to adjust the final concentration of ethanol to not more than 5%. The mean blood pressure was measured by meaans of a pressure transducer through the catheter inserted into the femoral artery.

platelet aggregation [5] = assay: extra vivo inhibitory activity of platelet aggregation after intraduodenal administration; type: in vivo, SD strain rats; details: for inhibition (%) (rate of platelet aggregation inhibition): 3 mg/kg i.d., blood drawn 30 min after administration, ADP, N 4
Experimental: extra vivo inhibitory activity of platelet aggregation:
The extra vivo platelet aggregation inhibitory activity of the prostacyclin derivatives of the invention were measured by using […]. The test compound of the invention in ethanol was diluted with 0.05M Tris buffer (pH 9.0) and as a control, only the 0.05M Tris buffer solution was used. These solutions were each intraduodenally administered in a dose of 1 ml/kg to SD strain rats weighing about 200 g which had been fasted for 16 hours. Thirty minutes after the administration, blood was drawn off from the aorta using trisodium citrate so that the ratio of the blood to 3.8% trisodium citrate was 9:1. The blood was centrifuged at a speed of 800 rpm for 10 minutes. The upper layer was separated as platelet-rich plasma (PRP). The lower layer was further centrifuged at a speed of 2800 rpm for 10 minutes. The upper layer was separated as platelet poor plasma (PPP). 250 microliters of the resulting PRP was taken into an aggregometer cuvette, and incubated at 37° C. for 2 minutes. Then, 25 microliters of a 1.25 μM ADP disodium solution adjusted by dissolving with 0.1M tris-HCl buffer (pH 8.0) was added. The aggregation curve was recorded for 3 minutes. The maximum degree of aggregation of platelets within this time period was read, and the rate of inhibition of platelet aggregation was calculated from the following equation.
Rate of platelet aggregation inhibition (%)=(1-(TD /TC)×100
TC : the transmittance of the control glroup (to which only the 0.05M Tris buffer solution was administered),
TD : the transmittance of the drug administered group.

[6] = chemical stability at pH 7.4 (half period from UV absorption at 210 nm); type: physicochemical; details: pH 7.4 phosphate buffer, room temperature, UV 210 nm
Experimental: Test for the chemical stability of (5E)-5-chloro-PGI2 sodium salt (No. 686) and (5Z)-5-chloro-PGI2 sodium salt (No. 5Z-686):
6.54 ml of 0.02M potassium dihydrogen phosphate and 29.0 ml of 0.01M disodium hydrogen phosphate were mixed, and the pH of the mixture was measured by a pH meter.
The solution of (5E)-5-chloro-PGI2 sodium salt obtained in Example 35 and the solution of (5Z)-5-chloro-PGI2 sodium salt obtained in Example 36 were each added to the above buffer mixture, and their UV spectra were periodically recorded at room temperature. From the absorption values at 210 nm, the half periods of these salts were determined.

Lewis lung carcinoma = assay: activity of inhibiting metastasis of a malignant tumor; type: in vivo, mice
Experimental: Measurement of the activity of inhibiting metastasis of a malignant tumor:
Mice were used as experimental animals. Lewis lung carcinoma (4×10^5 cells/100 μl) was transplanted into the foot pad of each mouse. For seven days from the 5th to the 11th day after the transplantation, the compound No. 686 of the invention was intraperitoneally administered to the mouse once a day. On the 12th day, the foot at the primary nest was cut off, and the weight of the cut foot (primary nest portion) was measured. On the 20th day after the transplantation, the number of nests which metastasized to the lungs was measured.

[7] = cited from earlier work
[8] = tested on: platelet aggregation / blood pressure; details: cited from earlier work
[9] = tested on: 15-position dehydrogenase; details: cited from earlier work
[10] = 4 hr standing at 0° C. after dilution with phosphate buffer pH 7.4
[11] = 10 μg/kg/day i.p., day 5 to 11, 5 animals

CCCCCC(O)C=CC1C(O)CC2OC(=CCCCC(=O)O)C(F)C21 (centres unmarked) [Compound 688, sodium salt of 7-fluoro-PGI2]
ED20 (blood pressure [1]): 0.7 µg/kg
ED10 (heart rate): 1.9 µg/kg
IC50 (platelet aggregation [2]; 0 hr): 0.05 µg/mL
IC50 (platelet aggregation [2]; [10]): 0.05 µg/mL
P-ED20 / platelet IC50 [3]: 14.0
selectivity of pharmacological activity (in words) [3]: higher selectivity of pharmacological activity than PGI2
mean blood pressure (blood pressure [4]; 1 mg/kg i.d., 0 min): 102 ± 4
mean blood pressure (blood pressure [4]; 1 mg/kg i.d., 5 min): 101 ± 4
mean blood pressure (blood pressure [4]; 1 mg/kg i.d., 10 min): 97 ± 3
mean blood pressure (blood pressure [4]; 1 mg/kg i.d., 15 min): 99 ± 4
mean blood pressure (blood pressure [4]; 1 mg/kg i.d., 30 min): 104 ± 3
mean blood pressure (blood pressure [4]; 1 mg/kg i.d., 60 min): 100 ± 4
mean blood pressure (blood pressure [4]; 1 mg/kg i.d., 120 min): 100 ± 2
mean blood pressure (blood pressure [4]; 3 mg/kg i.d., 0 min): 104 ± 2
mean blood pressure (blood pressure [4]; 3 mg/kg i.d., 5 min): 100 ± 3
mean blood pressure (blood pressure [4]; 3 mg/kg i.d., 10 min): 100 ± 3
mean blood pressure (blood pressure [4]; 3 mg/kg i.d., 15 min): 103 ± 2
mean blood pressure (blood pressure [4]; 3 mg/kg i.d., 30 min): 102 ± 3
mean blood pressure (blood pressure [4]; 3 mg/kg i.d., 60 min): 102 ± 2
mean blood pressure (blood pressure [4]; 3 mg/kg i.d., 120 min): 100 ± 2
inhibition (%) (rate of platelet aggregation inhibition) (platelet aggregation [5]): 87.5 ± 5.8%
platelet aggregation inhibiting activity (in words) (platelet aggregation [5]; Table 5, 3 mg/kg i.d., rats): stronger platelet aggregating activity than the sodium salt of PGI2

CCCCCC(O)C=CC1C(O)CC2OC(=C(Cl)CCCC(=O)O)CC21 (centres unmarked) [Compound 686, (5E)-5-chloro-PGI2, sodium salt]
half-life [6]: ~22 days
ED20 (blood pressure [1]): 2.4 µg/kg
ED10 (heart rate): > 10 µg/kg
IC50 (platelet aggregation [2]; 0 hr): 0.14 µg/mL
IC50 (platelet aggregation [2]; [10]): 0.12 µg/mL
P-ED20 / platelet IC50 [3]: 17.1
selectivity of pharmacological activity (in words) [3]: higher selectivity of pharmacological activity than PGI2
Number of nests which metastasized to the lungs (measured on the 20th day) (Lewis lung carcinoma; [11]): 25.6 ± 12.0
Weight of the primary next portion measured on the 12th day (Lewis lung carcinoma; [11]): 2.17 ± 0.86 g
metastasis of the primary nest to the lungs (in words) (Lewis lung carcinoma; Table 6): inhibited metastasis of the primary nest to the lungs
primary nest (in words) (Lewis lung carcinoma; Table 6): reduced the primary nest

5-Chloro-PGI2 [Compound 500]
blood pressure lowering activity (in words) (blood pressure [1]): low blood pressure lowering activity
platelet aggregation inhibiting activity (in words) (platelet aggregation [2]): high platelet aggregation inhibiting activity

CCCCCC(O)C=CC1C(O)CC2OC(=CCCCC(=O)OC)C(F)C21 (centres unmarked) [Compound 637, 7-fluoro-PGI2 methyl ester]
IC50 (platelet aggregation [2]; 0 hr): 0.34 µg/mL (≈ 0.884 µM)
IC50 (platelet aggregation [2]; [10]): 0.38 µg/mL (≈ 0.988 µM)

CCCCC[C@H](O)/C=C/[C@@H]1[C@H]2C/C(=C/CCCC(=O)O)O[C@H]2C[C@H]1O [PGI2, Prostaglandin I2, reference compound]
ED20 (blood pressure [1]): 0.02 µg/kg
ED10 (heart rate): 0.04 µg/kg
IC50 (platelet aggregation [2]; 0 hr): 0.0047 µg/mL (≈ 0.0133 µM)
IC50 (platelet aggregation [2]; [10]): 0.56 µg/mL (≈ 1.59 µM)
P-ED20 / platelet IC50 [3]: 4.3
half period of its activity at physiological pH [7]: only about several minutes
doses required for platelet aggregation inhibiting action and antihypertensive action [8]: almost equal to each other
metabolism in vivo [9]: rapidly metabolized by a 15-position dehydrogenase

CCCCCC(O)C=CC1C(O)CC2OC(=CCCCC(=O)O)C(F)C21 (centres unmarked) [Compound 501, 7-Fluoro-PGI2]
blood pressure lowering activity (in words) (blood pressure [1]): low blood pressure lowering activity
platelet aggregation inhibiting activity (in words) (platelet aggregation [2]): high platelet aggregation inhibiting activity

CCCCCC(O)C=CC1C(O)CC2OC(=C(Cl)CCCC(=O)OC)CC21 (centres unmarked) [Compound 636, (5E)-5-chloro-PGI2 methyl ester]
IC50 (platelet aggregation [2]; 0 hr): 0.62 µg/mL (≈ 1.55 µM)
IC50 (platelet aggregation [2]; [10]): 0.51 µg/mL (≈ 1.27 µM)

CCCCCC(O)C=CC1C(O)CC2OC(=CCCCC(=O)O)CC21 (centres unmarked) [Sodium salt of PGI2, reference compound]
mean blood pressure (blood pressure [4]; 3 mg/kg i.d., 0 min): 109 ± 1
mean blood pressure (blood pressure [4]; 3 mg/kg i.d., 5 min): 84 ± 3
mean blood pressure (blood pressure [4]; 3 mg/kg i.d., 10 min): 101 ± 4
mean blood pressure (blood pressure [4]; 3 mg/kg i.d., 15 min): 110 ± 2
mean blood pressure (blood pressure [4]; 3 mg/kg i.d., 30 min): 109 ± 1
mean blood pressure (blood pressure [4]; 3 mg/kg i.d., 60 min): 107 ± 2
mean blood pressure (blood pressure [4]; 3 mg/kg i.d., 120 min): 103 ± 2
blood pressure lowering activity (in words) (blood pressure [4]; Table 4, i.d., conscious rats): stronger blood pressure lowering activity than the compound No. 688 of the present invention (especially five minutes later)
inhibition (%) (rate of platelet aggregation inhibition) (platelet aggregation [5]): 56.5 ± 11.3%

CCCCCC(O)C=CC1C(O)CC2OC(=C(Cl)CCCC(=O)O)CC21 (centres unmarked) [Compound 5Z-686, (5Z)-5-chloro-PGI2, sodium salt]
half period [6]: more than 1 month
